Earlier results in patent publication US20090192135A1, “Human Niemann Pick C1-Like 1 Gene (NPC1L1) Polymorphisms and Methods of Use Thereof” (SCHERING CORPORATION, priority 2005, published 2009).

Legend:
NPC1L1 [1] = molecular target: T1, NPC1L1 (Homo sapiens, UniProt Q9UHC9); settings: co-administered with a statin; cited from earlier work
T1 sequence (Q9UHC9 22-1359): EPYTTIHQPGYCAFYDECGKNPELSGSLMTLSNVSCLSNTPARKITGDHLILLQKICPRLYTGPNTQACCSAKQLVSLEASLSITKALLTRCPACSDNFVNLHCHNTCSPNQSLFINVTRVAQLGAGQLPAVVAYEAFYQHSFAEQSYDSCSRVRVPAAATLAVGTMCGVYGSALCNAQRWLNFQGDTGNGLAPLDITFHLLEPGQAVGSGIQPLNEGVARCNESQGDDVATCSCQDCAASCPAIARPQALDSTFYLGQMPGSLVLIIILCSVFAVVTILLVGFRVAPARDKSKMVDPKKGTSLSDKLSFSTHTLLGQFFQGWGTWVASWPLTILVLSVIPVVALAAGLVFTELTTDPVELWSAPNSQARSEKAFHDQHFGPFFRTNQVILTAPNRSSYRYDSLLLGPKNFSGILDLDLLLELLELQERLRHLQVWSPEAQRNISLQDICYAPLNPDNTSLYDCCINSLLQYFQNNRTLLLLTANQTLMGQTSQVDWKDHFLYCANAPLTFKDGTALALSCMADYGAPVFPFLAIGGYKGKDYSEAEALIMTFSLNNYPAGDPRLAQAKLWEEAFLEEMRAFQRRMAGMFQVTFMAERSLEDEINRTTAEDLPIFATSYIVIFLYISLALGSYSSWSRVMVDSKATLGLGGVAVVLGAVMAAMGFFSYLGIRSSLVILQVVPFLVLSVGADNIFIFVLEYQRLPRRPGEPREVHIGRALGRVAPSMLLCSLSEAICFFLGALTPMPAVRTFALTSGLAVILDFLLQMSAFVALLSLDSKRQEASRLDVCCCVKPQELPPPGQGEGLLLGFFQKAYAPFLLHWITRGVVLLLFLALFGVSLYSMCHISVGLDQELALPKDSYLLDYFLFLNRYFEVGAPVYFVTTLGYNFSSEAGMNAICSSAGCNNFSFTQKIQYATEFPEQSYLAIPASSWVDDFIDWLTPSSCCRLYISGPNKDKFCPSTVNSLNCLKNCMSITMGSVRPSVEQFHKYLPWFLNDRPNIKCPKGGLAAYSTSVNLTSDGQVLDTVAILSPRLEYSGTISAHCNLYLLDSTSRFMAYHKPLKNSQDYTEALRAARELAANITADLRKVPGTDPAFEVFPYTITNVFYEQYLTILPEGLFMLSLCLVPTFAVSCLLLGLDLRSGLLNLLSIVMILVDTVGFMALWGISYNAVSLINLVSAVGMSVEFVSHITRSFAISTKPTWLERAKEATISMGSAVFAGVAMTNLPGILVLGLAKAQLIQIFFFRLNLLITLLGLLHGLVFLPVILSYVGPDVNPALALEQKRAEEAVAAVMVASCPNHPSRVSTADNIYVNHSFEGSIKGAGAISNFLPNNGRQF

NPC1L1 [2] = molecular target: T2, NPC1L1 (Homo sapiens, UniProt Q9UHC9); settings: cited from earlier work
T2 construct: from tissue; host or cells: small intestine of hypercholesterolemic patients (in vivo, clinical trial)
T2 sequence (Q9UHC9 22-1332 isoform Q9UHC9-2 limits assumed): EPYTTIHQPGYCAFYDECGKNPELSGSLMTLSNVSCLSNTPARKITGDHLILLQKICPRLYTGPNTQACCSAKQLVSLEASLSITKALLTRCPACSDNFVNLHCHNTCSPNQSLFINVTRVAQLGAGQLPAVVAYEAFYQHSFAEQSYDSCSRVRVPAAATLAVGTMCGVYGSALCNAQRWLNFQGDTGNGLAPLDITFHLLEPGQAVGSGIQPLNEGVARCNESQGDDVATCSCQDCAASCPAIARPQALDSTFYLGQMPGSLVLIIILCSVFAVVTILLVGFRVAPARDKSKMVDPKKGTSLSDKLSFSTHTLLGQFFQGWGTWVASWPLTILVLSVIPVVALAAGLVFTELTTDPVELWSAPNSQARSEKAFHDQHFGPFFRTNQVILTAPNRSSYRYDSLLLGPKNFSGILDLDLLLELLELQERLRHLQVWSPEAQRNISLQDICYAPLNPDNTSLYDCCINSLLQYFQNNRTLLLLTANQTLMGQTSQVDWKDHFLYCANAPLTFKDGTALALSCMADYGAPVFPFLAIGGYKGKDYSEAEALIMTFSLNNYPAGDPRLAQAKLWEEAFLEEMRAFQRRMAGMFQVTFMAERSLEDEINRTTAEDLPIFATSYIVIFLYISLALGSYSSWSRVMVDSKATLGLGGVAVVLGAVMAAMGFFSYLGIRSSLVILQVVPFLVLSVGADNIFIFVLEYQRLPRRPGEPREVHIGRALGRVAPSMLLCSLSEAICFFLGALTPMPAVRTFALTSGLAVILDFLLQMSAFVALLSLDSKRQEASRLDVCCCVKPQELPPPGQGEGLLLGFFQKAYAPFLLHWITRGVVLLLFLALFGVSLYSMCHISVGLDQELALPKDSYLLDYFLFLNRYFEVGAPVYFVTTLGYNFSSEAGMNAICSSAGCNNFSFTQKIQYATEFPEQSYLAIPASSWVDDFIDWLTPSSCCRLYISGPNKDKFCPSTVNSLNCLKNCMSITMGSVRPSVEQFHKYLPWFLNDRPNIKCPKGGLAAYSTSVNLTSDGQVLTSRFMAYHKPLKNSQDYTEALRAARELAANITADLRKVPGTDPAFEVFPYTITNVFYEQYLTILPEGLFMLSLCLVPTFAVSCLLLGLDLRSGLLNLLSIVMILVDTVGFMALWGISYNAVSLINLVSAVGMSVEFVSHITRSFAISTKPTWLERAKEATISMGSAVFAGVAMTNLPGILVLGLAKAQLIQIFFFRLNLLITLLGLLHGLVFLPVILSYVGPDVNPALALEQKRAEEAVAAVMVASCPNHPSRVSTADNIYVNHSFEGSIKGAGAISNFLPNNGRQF

Which “incremental LDL-C reduction attributable to ezetimibe” value (NPC1L1 [1]) does the source give for `O=C1[C@H](CC[C@H](O)c2ccc(F)cc2)[C@@H](c2ccc(O)cc2)N1c1ccc(F)cc1` [ezetimibe, 1-(4-fluorophenyl)-3(R)-[3-(4-fluorophenyl)-3(S)-hydroxypropyl]-4(S)-(4-hydroxyphenyl)-2-azetidinone] here?
The value was 14-15%.

What about the “additional LDL-C reduction compared with addition of placebo” value (NPC1L1 [2]; added to ongoing statin therapy, stable dose of statins, EASE) of the same molecule?
Its value is about 23%.

What about the “reduction in LDL-C” value (NPC1L1 [2]; ezetimibe group of EASE trial (placebo 2.7%, p<0.001)) of the same molecule?
Its value is 25.8%.
